Test results taken from patent publication US7897633B2, “Inhibitors of glutaminyl cyclase” (Probiodrug AG, priority 2004, dated 2011).

Assays:
glutaminyl cyclase (QC) = glutaminyl cyclase (QC) (Homo sapiens, UniProt Q16769); experiment: Inhibitor assay for glutaminyl cyclase (QC) activity; conditions: for Res. Act. (%): rapid test of QC-inhibition: 4 mM inhibitor, substrate concentration at 1 KM
Sequence of glutaminyl cyclase (QC) (Q16769 29-361): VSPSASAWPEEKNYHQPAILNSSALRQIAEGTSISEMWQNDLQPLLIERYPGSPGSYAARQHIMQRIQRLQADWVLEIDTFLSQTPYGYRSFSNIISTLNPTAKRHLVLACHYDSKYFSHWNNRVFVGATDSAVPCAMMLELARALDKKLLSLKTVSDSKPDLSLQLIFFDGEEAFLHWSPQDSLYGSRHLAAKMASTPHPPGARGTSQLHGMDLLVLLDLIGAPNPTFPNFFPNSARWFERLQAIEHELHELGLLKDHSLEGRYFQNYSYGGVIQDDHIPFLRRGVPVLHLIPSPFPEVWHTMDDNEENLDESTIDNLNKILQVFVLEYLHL
Protocol: Excitation/emission wavelengths were 320/410 nm. The assay reactions were initiated by addition of glutaminyl cyclase.
Reactions were carried out at 30° C. utilizing the NOVOStar reader for microplates (BMG labtechnologies). […] Excitation/emission wavelengths were 380/460 nm. The assay reactions were initiated by addition of glutaminyl cyclase. […] The kinetic data were evaluated using GraFit software.
The initial velocities were evaluated and the enzymatic activity was determined from a standard curve of ammonia under assay conditions. All samples were measured at 30° C., using either the [sequence]luor Plus or the Sunrise (both from TECAN) reader for microplates. Kinetic data was evaluated using GraFit software.
For inhibitor testing, the sample composition was the same as described above, except of the putative inhibitory compound added. […] For detailed investigations of the inhibition and determination of Ki-values, influence of the inhibitor on the auxiliary enzymes was investigated first.

Row | SMILES | melting point | Ki (glutaminyl cyclase (QC)) | Res. Act. (%) (glutaminyl cyclase (QC)) | other results
1 | CNC(=S)NCCCn1ccnc1 | 122 to 122.5 °C |  |  | 
2 | COc1ccc(NC(=S)NC[C@H](C)Cn2ccnc2)cc1OC | 150.5 to 151.5 °C |  |  | 
3 | COc1ccc(NC(=S)NC[C@@H](C)Cn2ccnc2)cc1OC | 155 to 157.5 °C |  |  | 
4 | COc1ccc(NC(=S)NCC2(Cn3ccnc3)CC2)cc1OC | 166.5 to 168.5 °C |  |  | 
5 | C[C@@H](C(=S)NCCCn1ccnc1)c1ccccc1 | 82 to 82.5 °C |  |  | 
6 | C[C@H](C(=S)NCCCn1ccnc1)c1ccccc1 | 82.5 to 83.5 °C |  |  | 
7 | COc1ccc(CC(=S)NCCCn2ccnc2)cc1OC | 148 to 150 °C |  |  | 
8 | S=C(NCCCn1ccnc1)C1(c2ccc(Cl)cc2)CCC1 | 137.5 to 139 °C |  |  | 
9 | S=C(NCCCn1ccnc1)C1(c2ccc(Cl)cc2)CCCC1 | 140 to 141 °C |  |  | 
10 | COc1ccc(C2(C(=S)NCCCn3ccnc3)CCCCC2)cc1 | 162.5 to 164 °C |  |  | 
11 | COc1ccc(C2(C(=S)NCCCn3ccnc3)CC2)cc1 | 129 to 129.5 °C |  |  | 
12 | COc1ccc(NC(=S)CCCCn2ccnc2)cc1OC | 128 to 128.5 °C |  |  | 
13 | COc1ccc(NC(=S)NCCn2ccnc2)cc1OC | 157.5 to 159 °C |  |  | 
14 | COc1ccc(NC(=S)NCCCCn2ccnc2)cc1OC | 114.5 to 116 °C |  |  | 
15 | COc1ccc(NC(=S)NCCCn2ccnc2)c(OC)c1 | 120 to 120.5 °C |  |  | 
16 | COc1cc(NC(=S)NCCCn2ccnc2)cc(OC)c1 | 142 to 143 °C |  |  | 
17 | CC(C)(C)NC(=S)NCCCn1ccnc1 | 147 to 147.5 °C |  |  | 
18 | S=C(NCCCn1ccnc1)Nc1ccc2c(c1)OCCO2 | 103 to 103.5 °C |  |  | 
19 | S=C(NCCCn1ccnc1)Nc1ccc2c(c1)OCO2 | 115 to 115.6 °C |  |  | 
20 | COc1cc(NC(=S)NCCCn2ccnc2)cc(OC)c1OC | 124.5 to 125.5 °C |  |  | 

Row | SMILES | melting point | Ki (glutaminyl cyclase (QC)) | Res. Act. (%) (glutaminyl cyclase (QC)) | other results
21 | COc1cccc(NC(=S)NCCCn2ccnc2)c1 | 89.5 to 90 °C |  |  | 
22 | S=C(NCCCn1ccnc1)NCc1ccccc1 | 127 to 128 °C |  |  | 
23 | CN(C)c1ccc(NC(=S)NCCCn2ccnc2)cc1 | 146.5 to 147 °C |  |  | 
24 | CCc1ccc(NC(=S)NCCCn2ccnc2)cc1 | 100 to 100.5 °C |  |  | 
25 | FC(F)(F)c1ccc(NC(=S)NCCCn2ccnc2)cc1 [Example 8, 1-(3-(1H-imidazol-1-yl)propyl)-3-(4-(trifluoromethyl)phenyl)thiourea] | 154.5 to 155 °C | 3930 nM | 38.5% | 
26 | COC(=O)c1ccc(NC(=S)NCCCn2ccnc2)cc1 [Example 9] |  | 1190 nM |  | 
27 | CC(=O)c1ccc(NC(=S)NCCCn2ccnc2)cc1 [Example 10, 1-(3-(1H-imidazol-1-yl)propyl)-3-(4-acetylphenyl)thiourea] | 170 to 171 °C | 1700 nM | 17.0% | 
28 | COc1ccc(NC(=S)NCCCn2ccnc2)cc1 [Example 11, 1-(3-(1H-imidazol-1-yl)propyl)-3-(4-methoxyphenyl)thiourea] |  |  | 9.7% | 
29 | S=C(NCCCn1ccnc1)Nc1ccc(-c2cnco2)cc1 [Example 17] |  | 860 nM | 3.64% | 
30 | O=S(=O)(c1ccc(NC(=S)NCCCn2ccnc2)cc1)N1CCCCC1 [Example 20] |  | 2270 nM | 8.5% | 
31 | N#Cc1ccc(NC(=S)NCCCn2ccnc2)cc1 [Example 22] |  | 2890 nM | 9.0% | 
32 | CCOc1ccc(NC(=S)NCCCn2ccnc2)cc1 [Example 27, 1-(3-(1H-imidazol-1-yl)propyl)-3-(4-ethoxyphenyl)thiourea] |  |  | 7.2% | 
33 | COc1ccc(CNC(=S)NCCCn2ccnc2)cc1 [Example 29] |  | 3930 nM |  | 
34 | CSc1ccc(NC(=S)NCCCn2ccnc2)cc1 [Example 33, 1-(3-(1H-imidazol-1-yl)propyl)-3-(4-(methylthio)phenyl)thiourea] | 140 to 140.5 °C |  |  | 
35 | S=C(NCCCn1ccnc1)Nc1ccc(I)cc1 [Example 38] |  | 2120 nM | 23.5% | 
36 | S=C(NCCCn1ccnc1)Nc1ccc(Br)cc1 [Example 39] |  | 2520 nM |  | 
37 | CCCCNC(=S)NCCCn1ccnc1 [Example 43] |  |  | 53.8% | IC50 (glutaminyl cyclase (QC)): 14 µM
38 | S=C(NCCCn1ccnc1)NC1CCCCCCC1 [Example 44] |  |  | 33.1% | IC50 (glutaminyl cyclase (QC)): 9.1 µM
39 | S=C(NCCCn1ccnc1)NCc1ccco1 [Example 45] |  |  | 61.4% | IC50 (glutaminyl cyclase (QC)): 10 µM
40 | S=C(NCCCn1ccnc1)NCC1CCCO1 (centres unmarked) [Example 46] |  |  | 46.0% | IC50 (glutaminyl cyclase (QC)): 12.8 µM

Row | SMILES | melting point | Ki (glutaminyl cyclase (QC)) | Res. Act. (%) (glutaminyl cyclase (QC)) | other results
41 | S=C(NCCCn1ccnc1)NCc1ccc2c(c1)OCO2 [Example 47] |  |  | 42.7% | 
42 | S=C(NCCCn1ccnc1)NCCN1CCOCC1 [Example 48] |  |  | 55.0% | IC50 (glutaminyl cyclase (QC)): 13.3 µM
43 | COc1cc(NC(=NC#N)NCCCn2ccnc2)cc(OC)c1 [Example 57] |  | 910 nM |  | 
44 | N#CN=C(NCCCn1ccnc1)Nc1ccc2c(c1)OCO2 [Example 59] |  | 730 nM |  | 
45 | COc1cc(NC(=NC#N)NCCCn2ccnc2)cc(OC)c1OC [Example 60] |  | 880 nM |  | 
46 | N#CN=C(NCCCn1ccnc1)NCc1ccccc1 [Example 68] |  | 8170 nM | 22.5% | 
47 | Cc1ccc(NC(=NC#N)NCCCn2ccnc2)cc1 [Example 75] |  | 1340 nM |  | 
48 | COc1ccc(NC(=N)NCCCn2ccnc2)cc1OC [Example 92] |  | 204000 nM |  | 
49 | CN=C(NCCCn1ccnc1)Nc1ccc(OC)c(OC)c1 [Example 93] |  | 3620 nM |  | 
50 | CCNC(=O)NCCCn1ccnc1 [Example 96] |  | 19200 nM |  | 
51 | O=C(NCCCn1ccnc1)Nc1cc(F)cc2c1OCOC2 [Example 97] |  |  | 19.0% | IC50 (glutaminyl cyclase (QC)): 12 µM
52 | COc1ccc(NC(=O)NCCCn2ccnc2)cc1OC1CCCC1 [Example 98] |  | 620 nM | 2.87% | 
53 | CCCCCCCOc1ccc(NC(=O)NCCCn2ccnc2)cc1 [Example 99] |  |  | 5.6% | IC50 (glutaminyl cyclase (QC)): 9.9 µM
54 | COc1ccc(NC(=S)NCc2ccccc2Cn2ccnc2)cc1OC [Example 103] |  | 4840 nM | 16.27% | 
55 | COc1ccc(NC(=S)NCc2cccc(Cn3ccnc3)c2)cc1OC [Example 104] |  | 3520 nM |  | 
56 | COc1ccc(NC(=S)NCc2ccc(Cn3ccnc3)cc2)cc1OC [Example 105] |  | 1860 nM |  | 
57 | S=C(Cc1ccccc1)NCCCn1ccnc1 [Example 113] |  | 4620 nM |  | 
58 | S=C(Cc1cccs1)NCCCn1ccnc1 [Example 114] |  | 3290 nM |  | 
59 | CCC(C(=S)NCCCn1ccnc1)c1ccccc1 (centres unmarked) [Example 117] |  | 3570 nM |  | 
